Several values for one entry are separate records, joined by “and”; a condition that tells them apart may be missing. Equal values may be shown once.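 Five compound concentrations were applied to cells in 96-well plates for 48 hours; endpoints were derived by simple linear interpolation of the resulting dose-response curve. GI50 is the concentration that inhibits growth by half. TGI denotes the concentration required for complete inhibition of growth.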
Columns and labels:
Experiment in all cases: DTP human tumour cell line panel, 48 h
786-0 renal = tested on: 786-0 renal
A549 NSCLC = tested on: A549 NSCLC
CAKI-1 renal = tested on: CAKI-1 renal
EKVX NSCLC = tested on: EKVX NSCLC
HCT-15 colon = tested on: HCT-15 colon
MALME-3M melanoma = tested on: MALME-3M melanoma
OVCAR-5 ovarian = tested on: OVCAR-5 ovarian
OVCAR-8 ovarian = tested on: OVCAR-8 ovarian
SK-MEL-5 melanoma = tested on: SK-MEL-5 melanoma
SR leukemia = tested on: SR leukemia

Compound	TGI (786-0 renal)	TGI (A549 NSCLC)	TGI (CAKI-1 renal)	TGI (EKVX NSCLC)	TGI (HCT-15 colon)	TGI (MALME-3M melanoma)	TGI (OVCAR-5 ovarian)	TGI (OVCAR-8 ovarian)	TGI (SK-MEL-5 melanoma)	TGI (SR leukemia)	GI50 (786-0 renal)	GI50 (A549 NSCLC)	GI50 (CAKI-1 renal)	GI50 (EKVX NSCLC)	GI50 (HCT-15 colon)	GI50 (MALME-3M melanoma)	GI50 (OVCAR-5 ovarian)	GI50 (OVCAR-8 ovarian)	GI50 (SK-MEL-5 melanoma)	GI50 (SR leukemia)
O=C1OC(O)C(Oc2c(Cl)cccc2Cl)=C1Cl (centres undefined)	32.2 µM	34.7 µM	48 µM	73.2 µM	29 µM	75.4 µM	46 µM	37.9 µM	27.5 µM	54.1 µM	–	–	–	–	–	–	–	–	–	–
C[N+](C)(C)CC(=O)N/N=C(\C(=O)NC1=C(Cl)C(=O)c2ccccc2C1=O)C(C#N)c1csc(-c2ccc([N+](=O)[O-])cc2)n1 (centres undefined)	> 100 µM	> 100 µM	> 100 µM	> 100 µM	> 100 µM	> 100 µM	> 100 µM	> 100 µM	> 100 µM	> 100 µM	–	–	–	–	–	–	–	–	–	–
Cn1c(=O)c2nc(-c3ccc(Cl)cc3)oc2n(C)c1=O	> 100 µM	> 100 µM	> 100 µM	> 100 µM	> 100 µM	> 100 µM	> 100 µM	> 100 µM	> 100 µM	> 100 µM	–	–	–	–	–	–	–	–	–	–
CCC(CNc1cc(OC)cc2cccnc12)NC1CCCCC1 (centres undefined)	69.4 µM	> 100 µM	> 100 µM	> 100 µM	> 100 µM	34.8 µM	> 100 µM	> 100 µM	30.6 µM	96.1 µM	24 µM	63.3 µM	21.9 µM	40.1 µM	34.9 µM	17.2 µM	61 µM	51.1 µM	15.8 µM	24.5 µM
O=C1/C(=C\c2ccccn2)c2ccccc2N1c1c(Cl)cccc1Cl	3.49 µM	14.6 µM	–	17.8 µM	5.3 µM	4.89 µM	4.81 µM	8.34 µM	3.03 µM	> 100 µM	1.84 µM	2.29 µM	1.83 µM	3.47 µM	2.11 µM	1.74 µM	2.05 µM	2.41 µM	1.61 µM	5.07 µM
COc1cc(Nc2nc3ccccc3cc2C(=O)Nc2ccc(F)c(F)c2)cc(OC)c1OC	> 100 µM	> 100 µM	> 100 µM	> 100 µM	> 100 µM	6.41 µM	> 100 µM	7.85 µM	3.11 µM	9.4 µM	3.38 µM	3.08 µM	2.72 µM	2.87 µM	2.91 µM	2.68 µM	4.29 µM	2.77 µM	1.62 µM	2.71 µM
COC(=O)C(Cc1nc2ccccc2[nH]c1=O)C(=O)C(=O)Nc1ccc([N+](=O)[O-])cc1[N+](=O)[O-] (centres undefined)	32 µM	> 100 µM	> 100 µM	51.2 µM	34.5 µM	34.3 µM	51 µM	52.6 µM	33.1 µM	> 100 µM	–	–	–	–	–	–	–	–	–	–
O=c1c(Cl)c(Cl)c(=O)c2sc3cc(Cl)ccc3[nH]c1=2	> 100 µM	> 100 µM	> 100 µM	28.7 µM	> 100 µM	> 100 µM	> 100 µM	35 µM	> 100 µM	21.5 µM	–	–	–	–	–	–	–	–	–	–
O=Cc1cccc2c1Oc1c(cccc1C(=O)O)S2	> 100 µM	> 100 µM	> 100 µM	> 100 µM	> 100 µM	> 100 µM	> 100 µM	> 100 µM	> 100 µM	> 100 µM	–	–	–	–	–	–	–	–	–	–
Cc1sc2c(c1C)C(c1ccc(Cl)cc1)=N[C@@H](CC(=O)OC(C)(C)C)c1nnc(C)n1-2	19.9 µM and 18.9 µM	21.8 µM and 15.3 µM	18.2 µM and 15.1 µM	20.5 µM and 18.2 µM	13.4 µM and 13.7 µM	26.4 µM and 22.1 µM	25 µM and 22.7 µM	26.8 µM and 20.5 µM	4.27 µM and 14.2 µM	18.7 µM and 17.1 µM	0.605 µM and 0.841 µM	0.73 µM and 0.312 µM	0.0513 µM and 0.0532 µM	3.17 µM and 1.18 µM	0.308 µM and 0.157 µM	11.4 µM and 4.84 µM	11.9 µM and 10.4 µM	0.875 µM and 0.62 µM	0.0966 µM and 0.337 µM	0.229 µM and 0.0451 µM
O=c1c2cccc3cccc(c4n1CCN=4)c32	> 100 µM	> 100 µM	> 100 µM	> 100 µM	> 100 µM	> 100 µM	> 100 µM	> 100 µM	> 100 µM	81.5 µM	–	–	–	–	–	–	–	–	–	–
